# Experimental data: patent publication US8642585B2, “Indanyloxydihydrobenzofuranylacetic acids” (Boehringer Ingelheim International GmbH, priority 2012, dated 2014)
# Key:
# [1] = biological target: T1, human GPR40 receptor (Homo sapiens, UniProt O14842); test: Assay I: IP1 accumulation (IPOne HTRF) in 1321N1 cells stably expressing human GPR40; format: cell-based; conditions: 1321N1 cells expressing human GPR40, stimulation 1 hour at 37° C., 10% CO2, final LiCl 50 mM
# Description: IP1 accumulation measurements using the IPOne assay system—1321N1 cells stably expressing human GPR40 receptor (Euroscreen, Belgium) are seeded 24 h before the assay in black clear-bottom collagen-coated 384-well plates in culture medium containing 10% FCS, 1% Na-Pyruvate and 400 μg/mL G418. IP1 is assayed according to the Manufacturers description (Cisbio Bioassays, France). In brief, the assay is started by substitution of the culture medium by stimulation buffer (Hepes 10 mM, CaCl2 1 mM, MgCl2 0.5 mM, KCl 4.2 mM, NaCl 146 mM and glucose 5.5 mM, pH 7.4) without LiCl. Cells are stimulated for 1 hour at 37° C., 10% CO2 by addition of the compounds that are diluted in stimulation buffer containing LiCl yielding a final LiCl concentration of 50 mM. Assays are stopped by adding HTRF-conjugates (IP1-d2 and Anti-IP1 cryptate Tb) and lysis buffer, provided by the manufacturer. After an incubation time of 1 hour at room temperature plates are measured using an EnVision™, Perkin Elmer. The obtained fluorescence ratios at 665/615 nM are then used to calculate the pEC50 values using GraphPad Prism 5 (Graphpad Software Inc, USA) by interpolation using an IP1 reference curve and subsequent sigmoidal curve fitting allowing for a variable hill slope.
# [2] = biological target: T1, human GPR40 receptor; test: Assay II: IP1 accumulation (IPOne HTRF) in 1321N1 cells stably expressing human GPR40; format: cell-based; conditions: 1321N1 cells expressing human GPR40, stimulation 1 h at 37° C., 5% CO2, LiCl 50 mM
# Summary of the method: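 1321N1 cells stably expressing human GPR40, seeded 24 h earlier, were stimulated with compound for 1 h at 37 °C in LiCl (50 mM) buffer, pH 7.4. IP1 measured by HTRF (665/615 ratio) after lysis and 1 h room temperature; pEC50 via IP1 reference curve and variable-slope sigmoidal fit.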
# T1 sequence (O14842 whole entry): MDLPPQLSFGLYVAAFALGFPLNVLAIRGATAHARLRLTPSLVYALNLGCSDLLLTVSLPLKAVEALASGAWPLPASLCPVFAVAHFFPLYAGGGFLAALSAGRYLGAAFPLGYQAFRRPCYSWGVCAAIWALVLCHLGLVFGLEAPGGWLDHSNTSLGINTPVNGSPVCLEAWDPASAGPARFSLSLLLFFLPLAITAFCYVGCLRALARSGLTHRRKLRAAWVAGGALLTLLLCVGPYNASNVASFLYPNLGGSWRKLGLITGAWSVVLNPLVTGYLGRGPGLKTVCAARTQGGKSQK
Compound,EC50 [1] [nM],EC50 [2] [nM]
"Cc1cc(OCC2(C)COC2)cc(C)c1-c1ccc(F)c2c1CC[C@H]2Oc1ccc2c(c1)OC[C@H]2CC(=O)O [Example 1, 2-((S)-6-((R)-4-(2,6-dimethyl-4-((3-methyloxetan-3-yl)methoxy)phenyl)-7-fluoro-2,3-dihydro-1H-inden-1-yloxy)-2,3-dihydrobenzofuran-3-yl)acetic acid]",4,
"Cc1cc(OCC2CCOC2)cc(C)c1-c1ccc(F)c2c1CC[C@H]2Oc1ccc2c(c1)OC[C@H]2CC(=O)O (stereo partly drawn) [Example 2, 2-((3S)-6-((1R)-4-(2,6-dimethyl-4-((tetrahydrofuran-3-yl)methoxy)phenyl)-7-fluoro-2,3-dihydro-1H-inden-1-yloxy)-2,3-dihydrobenzofuran-3-yl)acetic acid]",5,
"Cc1cc(OCC2CCCO2)cc(C)c1-c1ccc(F)c2c1CC[C@H]2Oc1ccc2c(c1)OC[C@H]2CC(=O)O (stereo partly drawn) [Example 3, 2-((3S)-6-((1R)-4-(2,6-dimethyl-4-((tetrahydrofuran-2-yl)methoxy)phenyl)-7-fluoro-2,3-dihydro-1H-inden-1-yloxy)-2,3-dihydrobenzofuran-3-yl)acetic acid]",6,
"Cc1cc(OCCC(C)(C)O)cc(C)c1-c1ccc(F)c2c1CC[C@H]2Oc1ccc2c(c1)OC[C@H]2CC(=O)O [Example 4, 2-((S)-6-((R)-7-Fluoro-4-(4-(3-hydroxy-3-methylbutoxy)-2,6-dimethylphenyl)-2,3-dihydro-1H-inden-1-yloxy)-2,3-dihydrobenzofuran-3-yl)acetic acid]",5,
"Cc1cc(OCC[S+](C)[O-])cc(C)c1-c1ccc(F)c2c1CC[C@H]2Oc1ccc2c(c1)OC[C@H]2CC(=O)O (stereo partly drawn) [Example 5, 2-((3S)-6-((1R)-4-(2,6-Dimethyl-4-(2-(methylsulfinyl)ethoxy)phenyl)-7-fluoro-2,3-dihydro-1H-inden-1-yloxy)-2,3-dihydrobenzofuran-3-yl)acetic acid]",19,
"Cc1cc(OCCS(C)(=O)=O)cc(C)c1-c1ccc(F)c2c1CC[C@H]2Oc1ccc2c(c1)OC[C@H]2CC(=O)O [Example 6, 2-((S)-6-((R)-4-(2,6-Dimethyl-4-(2-(methylsulfonyl)ethoxy)phenyl)-7-fluoro-2,3-dihydro-1H-inden-1-yloxy)-2,3-dihydrobenzofuran-3-yl)acetic acid]",22,
"Cc1cc(OC2CCOCC2)cc(C)c1-c1ccc(F)c2c1CC[C@H]2Oc1ccc2c(c1)OC[C@H]2CC(=O)O [Example 7, 2-((S)-6-((R)-4-(2,6-Dimethyl-4-(tetrahydro-2H-pyran-4-yloxy)phenyl)-7-fluoro-2,3-dihydro-1H-inden-1-yloxy)-2,3-dihydrobenzofuran-3-yl)acetic acid]",6,
"Cc1cc(O[C@H]2CCOC2)cc(C)c1-c1ccc(F)c2c1CC[C@H]2Oc1ccc2c(c1)OC[C@H]2CC(=O)O [Example 8, 2-((S)-6-((R)-4-(2,6-Dimethyl-4-((S)-tetrahydrofuran-3-yloxy)phenyl)-7-fluoro-2,3-dihydro-1H-inden-1-yloxy)-2,3-dihydrobenzofuran-3-yl)acetic acid]",4,
"Cc1cc(O[C@@H]2CCOC2)cc(C)c1-c1ccc(F)c2c1CC[C@H]2Oc1ccc2c(c1)OC[C@H]2CC(=O)O [Example 9, 2-((S)-6-((R)-4-(2,6-Dimethyl-4-((R)-tetrahydrofuran-3-yloxy)phenyl)-7-fluoro-2,3-dihydro-1H-inden-1-yloxy)-2,3-dihydrobenzofuran-3-yl)acetic acid]",9,
"Cc1cc(OCC(C)(C)O)cc(C)c1-c1ccc(F)c2c1CC[C@H]2Oc1ccc2c(c1)OC[C@H]2CC(=O)O [Example 10, 2-((S)-6-((R)-7-Fluoro-4-(4-(2-hydroxy-2-methylpropoxy)-2,6-dimethylphenyl)-2,3-dihydro-1H-inden-1-yloxy)-2,3-dihydrobenzofuran-3-yl)acetic acid]",9,
"Cc1cc(OC2CCC(O)C2)cc(C)c1-c1ccc(F)c2c1CC[C@H]2Oc1ccc2c(c1)OC[C@H]2CC(=O)O (stereo partly drawn) [Example 11, 2-((3S)-6-((1R)-7-Fluoro-4-(4-(3-hydroxycyclopentyloxy)-2,6-dimethylphenyl)-2,3-dihydro-1H-inden-1-yloxy)-2,3-dihydrobenzofuran-3-yl)acetic acid]",5,
"Cc1cccc(-c2cc(C)c(-c3ccc(F)c4c3CC[C@H]4Oc3ccc4c(c3)OC[C@H]4CC(=O)O)c(C)c2)n1 [Example 139, {(S)-6-[(R)-4-(2,6-Dimethyl-4-(6-methyl-pyridin-2-yl)-phenyl)-7-fluoro-indan-1-yloxy]-2,3-dihydro-benzofuran-3-yl}-acetic acid]",,2
"Cc1ccnc(-c2cc(C)c(-c3ccc(F)c4c3CC[C@H]4Oc3ccc4c(c3)OC[C@H]4CC(=O)O)c(C)c2)c1 [Example 140, {(S)-6-[(R)-4-(2,6-Dimethyl-4-(4-methyl-pyridin-2-yl)-phenyl)-7-fluoro-indan-1-yloxy]-2,3-dihydro-benzofuran-3-yl}-acetic acid]",,2
"Cc1cc(C)nc(-c2cc(C)c(-c3ccc(F)c4c3CC[C@H]4Oc3ccc4c(c3)OC[C@H]4CC(=O)O)c(C)c2)c1 [Example 141, {(S)-6-[(R)-4-(2,6-Dimethyl-4-(4,6-dimethyl-pyridin-2-yl)-phenyl)-7-fluoro-indan-1-yloxy]-2,3-dihydro-benzofuran-3-yl}-acetic acid]",,3
"Cc1cn(C)c(-c2cc(C)c(-c3ccc(F)c4c3CC[C@H]4Oc3ccc4c(c3)OC[C@H]4CC(=O)O)c(C)c2)n1 [Example 142, {(S)-6-[(R)-4-(2,6-Dimethyl-4-(1,4-dimethyl-imidazol-2-yl)-phenyl)-7-fluoro-indan-1-yloxy]-2,3-dihydro-benzofuran-3-yl}-acetic acid]",,16
"Cc1ccc(-c2cc(C)c(-c3ccc(F)c4c3CC[C@H]4Oc3ccc4c(c3)OC[C@H]4CC(=O)O)c(C)c2)nc1 [Example 143, {(S)-6-[(R)-4-(2,6-Dimethyl-4-(5-methyl-pyridin-2-yl)-phenyl)-7-fluoro-indan-1-yloxy]-2,3-dihydro-benzofuran-3-yl}-acetic acid]",,3
"Cc1cc(-c2nccn2C)cc(C)c1-c1ccc(F)c2c1CC[C@H]2Oc1ccc2c(c1)OC[C@H]2CC(=O)O [Example 144, {(S)-6-[(R)-4-(2,6-Dimethyl-4-(1-methyl-imidazol-2-yl)-phenyl)-7-fluoro-indan-1-yloxy]-2,3-dihydro-benzofuran-3-yl}-acetic acid]",,17
"Cc1cc(OCc2ccn(C)n2)cc(C)c1-c1ccc(F)c2c1CC[C@H]2Oc1ccc2c(c1)OC[C@H]2CC(=O)O [Example 145, 2-((S)-6-((R)-4-(2,6-dimethyl-4-((1-methyl-1H-pyrazol-3-yl)methoxy)phenyl)-7-fluoro-2,3-dihydro-1H-inden-1-yloxy)-2,3-dihydrobenzofuran-3-yl)acetic acid]",,15
"Cc1cc(OCc2ccn(C)c(=O)c2)cc(C)c1-c1ccc(F)c2c1CC[C@H]2Oc1ccc2c(c1)OC[C@H]2CC(=O)O [Example 146, 2-((S)-6-((R)-4-(2,6-dimethyl-4-((1-methyl-2-oxo-1,2-dihydropyridin-4-yl)methoxy)phenyl)-7-fluoro-2,3-dihydro-1H-inden-1-yloxy)-2,3-dihydrobenzofuran-3-yl)acetic acid]",,7
"Cc1cc(OCc2ncco2)cc(C)c1-c1ccc(F)c2c1CC[C@H]2Oc1ccc2c(c1)OC[C@H]2CC(=O)O [Example 148, 2-((S)-6-((R)-4-(2,6-dimethyl-4-(oxazol-2-ylmethoxy)phenyl)-7-fluoro-2,3-dihydro-1H-inden-1-yloxy)-2,3-dihydrobenzofuran-3-yl)acetic acid]",,13
"Cc1cc(OCc2nccn2C)cc(C)c1-c1ccc(F)c2c1CC[C@H]2Oc1ccc2c(c1)OC[C@H]2CC(=O)O [Example 149, 2-((S)-6-((R)-4-(2,6-dimethyl-4-((1-methyl-1H-imidazol-2-yl)methoxy)phenyl)-7-fluoro-2,3-dihydro-1H-inden-1-yloxy)-2,3-dihydrobenzofuran-3-yl)acetic acid]",,12
"Cc1cc(OCC2CCOCC2)cc(C)c1-c1ccc(F)c2c1CC[C@H]2Oc1ccc2c(c1)OC[C@H]2CC(=O)O [Example 150, 2-((S)-6-((R)-4-(2,6-dimethyl-4-((tetrahydro-2H-pyran-4-yl)methoxy)phenyl)-7-fluoro-2,3-dihydro-1H-inden-1-yloxy)-2,3-dihydrobenzofuran-3-yl)acetic acid]",,6
"Cc1cc(OCc2cnn(C)c2)cc(C)c1-c1ccc(F)c2c1CC[C@H]2Oc1ccc2c(c1)OC[C@H]2CC(=O)O [Example 152, 2-((S)-6-((R)-4-(2,6-dimethyl-4-((1-methyl-1H-pyrazol-4-yl)methoxy)phenyl)-7-fluoro-2,3-dihydro-1H-inden-1-yloxy)-2,3-dihydrobenzofuran-3-yl)acetic acid]",,19
"((S)-6-{(R)-4-[4-((R)-1,1-Dioxo- tetrahydro-1-thiophen-3- ylmethoxy)-2,6-dimethyl- phenyl]-7-fluoro-indan-1- yloxy}-2,3-dihydro-benzofuran- 3-yl)-acetic acid [Example 47]",,8
